Data: patent US7169808B2, “Compounds useful for the preparation of medicaments with phosphodiesterase IV inhibitory activity” (Sigma-Tau Industrie Farmaceutiche Riunite S.p.A., priority 2000, dated 2007)

Columns and labels:
PDE4 Activity (L)PDE4 = assay: IC50 for inhibition of PDE IV activity; type: biochemical; conditions: origin Human
Text: (§1) The following determination of IC50 for inhibition of PDE IV activity and competition at the rolipram receptor, conducted with standard processes, e.g. as described by Duplantier A. J. et al., J. Med. Chem. 39: 120, 1996 and by Thorphy T. J. et al., J Pharmacol. Exp. Ther., 263: 1195, 1992 have yielded the following results for compounds figuring among the examples envisaged within the framework of the invention described herein

[1] = system: Rolipram receptor (H)PDE4; assay: competition at the rolipram receptor; type: binding, Mouse; conditions: ratio IC50 (H)PDE4 / IC50 (L)PDE4
Text: as §1
(§2) N.C. means value not calculable because of no inhibition at the highest test concentration, however it means low affinity for rolipram receptor.

[2] = molecular target: T1, Rolipram receptor (H)PDE4; assay: competition at the rolipram receptor; type: binding, Mouse; conditions: origin Mouse brain
T1 construct: IC50(μM) Rolipram receptor (H)PDE4; other: origin Mouse brain
Text: as §1, §2

PDE IV = PDE IV inhibition at a single concentration; type: biochemical; conditions: human; concentration 100 μM
Text: Assays conducted with standard procedures, e.g. as described by Cortij et al., Br. J. Pharmacol. 108:562, 1993 or Nicholsen CD et al., Trends Pharmacol. Sci. 12:19, 1991 have yielded the following results for compounds figuring among the examples envisaged within the framework of the invention described herein.

PDE3 = assay: PDE selectivity, PDE3; type: biochemical, human
Text: (§3) These assays have yielded the following results for compounds figuring among the examples envisaged within the framework of the invention described herein.

PDE5 = PDE5 (Homo sapiens, UniProt O76074); assay: PDE selectivity, PDE5; type: biochemical
Text: as §3

PDE4 = assay: PDE selectivity, PDE4; type: biochemical, human
Text: as §3

PDE1 = assay: PDE selectivity, PDE1; type: biochemical, bovine
Text: as §3

PDE2 = PDE2 (Homo sapiens, UniProt O00408); assay: PDE selectivity, PDE2; type: biochemical
Sequence of PDE2 (O00408 whole entry): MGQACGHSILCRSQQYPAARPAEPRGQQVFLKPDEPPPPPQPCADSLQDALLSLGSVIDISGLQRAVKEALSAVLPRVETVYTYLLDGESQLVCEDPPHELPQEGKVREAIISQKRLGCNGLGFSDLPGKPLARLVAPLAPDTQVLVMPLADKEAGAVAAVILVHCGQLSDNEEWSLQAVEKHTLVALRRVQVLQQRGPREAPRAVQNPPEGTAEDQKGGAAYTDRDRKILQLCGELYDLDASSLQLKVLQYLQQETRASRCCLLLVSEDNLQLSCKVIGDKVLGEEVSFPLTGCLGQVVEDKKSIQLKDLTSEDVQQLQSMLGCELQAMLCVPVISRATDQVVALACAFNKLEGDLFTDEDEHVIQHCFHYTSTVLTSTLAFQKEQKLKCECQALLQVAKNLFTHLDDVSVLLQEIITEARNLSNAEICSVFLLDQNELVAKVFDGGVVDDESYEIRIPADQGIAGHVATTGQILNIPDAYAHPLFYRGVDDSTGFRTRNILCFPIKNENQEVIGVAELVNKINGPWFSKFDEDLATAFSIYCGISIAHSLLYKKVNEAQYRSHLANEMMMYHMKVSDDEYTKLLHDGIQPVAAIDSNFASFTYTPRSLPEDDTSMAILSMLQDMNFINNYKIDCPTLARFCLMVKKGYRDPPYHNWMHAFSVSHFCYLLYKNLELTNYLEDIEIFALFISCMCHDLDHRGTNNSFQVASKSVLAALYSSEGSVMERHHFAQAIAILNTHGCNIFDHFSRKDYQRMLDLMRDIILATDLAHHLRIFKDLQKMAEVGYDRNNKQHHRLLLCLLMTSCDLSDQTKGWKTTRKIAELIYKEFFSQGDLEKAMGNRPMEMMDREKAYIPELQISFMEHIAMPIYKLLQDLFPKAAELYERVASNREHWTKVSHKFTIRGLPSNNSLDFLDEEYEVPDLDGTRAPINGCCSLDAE
Text: as §3

PDE6 = assay: PDE selectivity, PDE6; type: biochemical, bovine
Text: as §3

Compound | IC50 (PDE4 Activity (L)PDE4) [µM] | H/L [1] | IC50 [2] [µM] | % inhibition (PDE IV) [%] | also measured
COC(=O)C(CC(=O)NO)Cc1ccc(OC)c(OC2CCCC2)c1 (racemic) [ST 1505, (R,S)-3-methoxycarbonyl-4-(3-cyclopentyloxy-4-methoxyphenyl)butane-hydroxamic acid] | 4.7 | 0.74 | 3.5 | 86 | 
COC(=O)/C(=C/c1ccc(OC)c(OC2CCCC2)c1)CC(=O)NO [ST 1701, methyl (2E)-3-[3-(cyclopentyloxy)-4-methoxyphenyl]-2-[2-(hydroxyamino)-2-oxoethyl]-2-propenoate] | 1.2 | 0.51 | 0.615 | 88 | % PDE inhibition at 100 μM PDE3 (human) (PDE3): 52%; inhibition at 100 µM (PDE5): 30%; % PDE inhibition at 100 μM PDE4 (human) (PDE4): 94%; % PDE inhibition at 100 μM PDE1 (bovine) (PDE1): 42%; inhibition at 100 µM (PDE2): 16%; % PDE inhibition at 100 μM PDE6 (bovine) (PDE6): 58%
COC(=O)C/C(=C\c1ccc(OC)c(OC2CCCC2)c1)C(=O)OC [ST 1945, methyl (3E)-3-methoxycarbonyl-4-(3-cyclopentoxy-4-methoxyphenyl)-3-butenoate] | 0.19 | 0.33 | 0.571 |  | 
COC(=O)/C(=C/c1ccc(OC)c(OC2CCCC2)c1)CCC(=O)O [ST 1977, (4E)-5-[3-(ciclopentyloxy)-4-methoxyphenyl]-4-(methoxycarbonyl)-4-pentenoic acid] | 1.3 | 7.13 | 9.27 |  | 
COC(=O)/C(=C/c1ccc(OC)c(OC2CCCC2)c1)CC(=O)O [ST 1503, (3E)-4-[3-(cyclopentyloxy)-4-methoxyphenyl]-3-(methoxycarbonyl)-3-butenoic acid] | 6.2 |  |  |  | 
COC(=O)C(CC(=O)O)Cc1ccc(OC)c(OC2CCCC2)c1 (centres unmarked) [ST 1504] | 8.7 | >1.15 | > 10 | 84 | 
COc1ccc(C(=O)CCC(=O)O)cc1OC1CCCC1 [ST 1689, 4-[3-(cyclopentyloxy)-4-methoxyphenyl]-4-oxo-butanoic acid] |  |  |  |  | melting point: 111 to 113 °C
